Laboratory results from US10183943B2, “Heterocyclic compounds and their use in preventing or treating bacterial infections” (MUTABILIS, priority 2015, dated 2019).

How the values were obtained:
AmpC P. aeruginosa = AmpC P. aeruginosa (Pseudomonas aeruginosa, UniProt P24735); assay: β-lactamase inhibitory activity, determination of IC50 (nitrocefin hydrolysis); details: read-out: IC50 β-lactamase AmpC (PAE); class (C); nitrocefin 200 μM, 30 min pre-incubation
[1] = target: CMY-37 (Citrobacter freundii); assay: as above; format: biochemical; details: class (C); nitrocefin 200 μM, 30 min pre-incubation
AmpC (P99) = AmpC (P99) (Enterobacter cloacae, UniProt P05364); assay: as above; details: read-out: IC50 β-lactamase AmpC (P99); class (C); nitrocefin 200 μM, 30 min pre-incubation
TEM-1 = target: T1, TEM-1 (Escherichia coli, UniProt P62593); assay: as above; format: biochemical; details: class (A); nitrocefin 200 μM, 30 min pre-incubation; read-out: IC50 β-lactamase TEM-1
T1 construct: made in house; host or cells: E. coli

OXA-15 = target: T2, OXA-15 (Pseudomonas aeruginosa, UniProt Q51574); assay: biochemical; details: class (D); nitrocefin 200 μM, 30 min pre-incubation; read-out: IC50 β-lactamase OXA-15
T2 construct: made in house; host or cells: E. coli

CTX-M-15 = target: T3, CTX-M-15 (Escherichia coli, UniProt Q9EXV5); assay: β-lactamase inhibitory activity, determination of IC50 (nitrocefin hydrolysis); format: biochemical; details: class (A); nitrocefin 200 μM, 30 min pre-incubation; read-out: IC50 β-lactamase CTX-M-15
T3 construct: made in house; host or cells: E. coli

SHV-1 = target: T4, SHV-1 (Klebsiella pneumoniae, UniProt P0AD64); assay: as above; format: biochemical; details: class (A); nitrocefin 200 μM, 30 min pre-incubation; read-out: IC50 β-lactamase SHV-1
T4 construct: made in house; host or cells: E. coli

[2] = test system: K. pneumoniae BAA-1898 (TEM-1, SHV-11, SHV-12, KPC-2); assay: MIC of compounds alone, broth microdilution; format: cell-based; details: strain BAA-1898 (K. pneumoniae)
How it was run: (§1)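 Cpd alone in DMSO; CAMHB, log-phase inoculum 5×10^5 cfu/mL; 35° C, 16-20 h, ambient air; MIC = lowest conc. with no visible growth (CLSI M7-A7).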

[3] = test system: P. aeruginosa CIP107051 (TEM-24); assay: MIC of compounds alone, broth microdilution; format: cell-based; details: strain CIP107051 (P. aeruginosa)
How it was run: as §1

[4] = test system: E. coli 190317 (TEM-1, SHV-12, CTX-M-15, OXA-1); assay: MIC of compounds alone, broth microdilution; format: cell-based; details: strain 190317 (E. coli)
How it was run: as §1

E. cloacae P99 (AmpC) [5] = assay: MIC of compounds alone, broth microdilution; format: cell-based; details: strain P99 (E. cloacae)
How it was run: as §1

[6] = test system: K. pneumoniae 6299 (TEM-1, SHV-11, OXA-163); assay: MIC of compounds alone, broth microdilution; format: cell-based; details: strain 6299 (K. pneumoniae)
How it was run: as §1

E. coli RGN238 (OXA-1) [7] = assay: MIC of compounds alone, broth microdilution; format: cell-based; details: strain RGN238 (E. coli)
How it was run: as §1

[8] = test system: E. coli 131119 (TEM-1, OXA-48); assay: MIC of compounds alone, broth microdilution; format: cell-based; details: strain 131119 (E. coli)
How it was run: as §1

[9] = test system: K. pneumoniae BAA-1898 (TEM-1, SHV-11, SHV-12, KPC-2); assay: MIC of ceftazidime (CAZ) in combination with compounds at 4 μg/mL, broth microdilution; format: cell-based; details: strain BAA-1898
Method: (§2) Method 2: MIC of Compounds and Synergy with Ceftazidime Against Bacterial Isolates (Table 2 and 3)
(§3) Compounds of the present invention were assessed against genotyped bacterial strains alone or in combination with the β-lactam ceftazidime (CAZ). In the assays, MICs of said compounds, or of ceftazidime at fixed concentrations of said compounds were determined by the broth microdilution method according to the Clinical Laboratory Standards Institute (CLSI-M7-A7). Briefly, compounds alone according to the invention were prepared in DMSO and spotted (2 μL each) on sterile polystyrene plates (Corning, 3788). Compounds and ceftazidime dilutions were prepared in DMSO and spotted (1 μL each) on sterile polystyrene plates (Corning, 3788). Log phase bacterial suspensions were adjusted to a final density of 5×10^5 cfu/mL in cation-adjusted Mueller-Hinton broth (Becton-Dickinson) and added to each well (98 μL). Microplates were incubated for 16-20 h at 35° C. in ambient air. The MIC of the compounds was defined as the lowest concentration of said compounds that prevented bacterial growth as read by visual inspection. The MIC of ceftazidime at each compound concentration was defined as the lowest concentration of ceftazidime that prevented bacterial growth as read by visual inspection.

[10] = test system: P. aeruginosa CIP107051 (TEM-24); assay: as above; format: cell-based; details: strain CIP107051
Method: as §2, §3

E. cloacae P99 (AmpC) [11] = assay: as above; format: cell-based; details: strain P99
Method: as §2, §3

[12] = test system: K. pneumoniae 6299 (TEM-1, SHV-11, OXA-163); assay: as above; format: cell-based; details: strain 6299
Method: as §2, §3

OXA-11 = target: T5, OXA-11 (Pseudomonas aeruginosa, UniProt Q06778); assay: β-lactamase inhibitory activity, determination of IC50 (nitrocefin hydrolysis); format: biochemical; details: class (D); nitrocefin 200 μM, 30 min pre-incubation; read-out: IC50 β-lactamase OXA-11
T5 construct: made in house; host or cells: E. coli

OXA-48 = target: T6, OXA-48 (Klebsiella pneumoniae, UniProt Q6XEC0); assay: as above; format: biochemical; details: class (D); nitrocefin 200 μM, 30 min pre-incubation; read-out: IC50 β-lactamase OXA-48
T6 construct: made in house; host or cells: E. coli

[13] = test system: E. coli 190317 (TEM-1, SHV-12, CTX-M-15, OXA-1); assay: microbe, parasite or virus in culture; format: cell-based; details: strain 190317
Method: as §2, §3

KPC-2 = target: T7, KPC-2 (Klebsiella pneumoniae, UniProt Q9F663); assay: β-lactamase inhibitory activity, determination of IC50 (nitrocefin hydrolysis); format: biochemical; details: class (A); nitrocefin 200 μM, 30 min pre-incubation; read-out: IC50 β-lactamase KPC-2
T7 construct: made in house; host or cells: E. coli

OXA-1 = target: T8, OXA-1 (Escherichia coli, UniProt P13661); assay: as above; format: biochemical; details: class (D); nitrocefin 200 μM, 30 min pre-incubation; read-out: IC50 β-lactamase OXA-1
T8 construct: made in house; host or cells: E. coli

[14] = test system: E. cloacae 260508 (TEM-1, CTX-M-15); assay: MIC of ceftazidime (CAZ) in combination with compounds at 4 μg/mL, broth microdilution; format: cell-based; details: Enterobacter cloacae; strain 260508; CAZ alone, no compound
Method: as §2, §3

[15] = test system: K. pneumoniae UFR77 (CMY-2); assay: as above; format: cell-based; details: Klebsiella pneumoniae; strain UFR77; CAZ alone, no compound
Method: as §2, §3

[16] = test system: E. coli UFR41 (TEM-1, CTX-M-15, CMY-2, OXA-1, NDM-4); assay: as above; format: cell-based; details: Escherichia coli, read-out: MIC of CAZ
Method: as §2, §3

[17] = test system: K. pneumoniae 200047 (TEM-1, SHV-32, CTX-M-15, OXA-1); assay: as above; format: cell-based; details: Klebsiella pneumoniae; strain 200047; CAZ alone, no compound
Method: as §2, §3

[18] = test system: K. pneumoniae 160143 (TEM-1, SHV-1, CTX-M-15, KPC-2, OXA-1); assay: as above; format: cell-based; details: Klebsiella pneumoniae; strain 160143; CAZ alone, no compound
Method: as §2, §3

[19] = test system: K. oxytoca UFR21 (TEM-1, CTX-M-15, OXA-48); assay: as above; format: cell-based; details: Klebsiella oxytoca; strain UFR21; CAZ alone, no compound
Method: as §2, §3

[20] = test system: E. cloacae UFR85 (TEM-1, CTX-M-15, AmpC); assay: as above; format: cell-based; details: Enterobacter cloacae; strain UFR85; CAZ alone, no compound
Method: as §2, §3

[21] = test system: K. pneumoniae UFR24 (TEM-1, SHV-2, SHV-11, OXA-1, OXA-48, OXA-47); assay: as above; format: cell-based; details: Klebsiella pneumoniae, read-out: MIC of CAZ
Method: as §2, §3

[22] = test system: E. cloacae UFR51 (SHV-12, IMP-8); assay: as above; format: cell-based; details: Enterobacter cloacae, read-out: MIC of CAZ
Method: as §2, §3

E. coli RGN238 (OXA-1) [23] = assay: as above; format: cell-based; details: Escherichia coli; strain RGN238; CAZ alone, no compound
Method: as §2, §3

[24] = test system: K. pneumoniae UFR39 (CTX-M-15, NDM-1); assay: as above; format: cell-based; details: Klebsiella pneumoniae; strain UFR39; CAZ alone, no compound
Method: as §2, §3

[25] = test system: E. cloacae UFR70 (TEM-1, CTX-M-15, CMY-2, OXA-1, Porin loss); assay: as above; format: cell-based; details: Enterobacter cloacae, read-out: MIC of CAZ
Method: as §2, §3

[26] = test system: E. coli UFR32 (TEM-1, VEB-1, OXA-10); assay: as above; format: cell-based; details: Escherichia coli, read-out: MIC of CAZ
Method: as §2, §3

[27] = test system: E. coli UFR74 (SHV-1, DHA-1); assay: as above; format: cell-based; details: Escherichia coli; strain UFR74; CAZ alone, no compound
Method: as §2, §3

[28] = test system: E. coli 131119 (TEM-1, OXA-48); assay: as above; format: cell-based; details: Escherichia coli; strain 131119; CAZ alone, no compound
Method: as §2, §3

[29] = test system: E. coli UFR18 (CTX-M-15, OXA-204); assay: as above; format: cell-based; details: Escherichia coli, read-out: MIC of CAZ
Method: as §2, §3

[30] = test system: E. coli UFR61O (TEM-1, KPC-2); assay: as above; format: cell-based; details: Escherichia coli; strain UFR61O; CAZ alone, no compound
Method: as §2, §3

[31] = test system: K. pneumoniae UFR68 (TEM-1, SHV-11, CTX-M-15, KPC-3); assay: microbe, parasite or virus in culture; format: cell-based; details: Klebsiella pneumoniae, read-out: MIC of CAZ
Method: as §2, §3

[32] = MIC of CAZ with compound fixed at 4 μg/mL

Sequence of CMY-37 (Citrobacter freundii) (A0A9R8 21-381): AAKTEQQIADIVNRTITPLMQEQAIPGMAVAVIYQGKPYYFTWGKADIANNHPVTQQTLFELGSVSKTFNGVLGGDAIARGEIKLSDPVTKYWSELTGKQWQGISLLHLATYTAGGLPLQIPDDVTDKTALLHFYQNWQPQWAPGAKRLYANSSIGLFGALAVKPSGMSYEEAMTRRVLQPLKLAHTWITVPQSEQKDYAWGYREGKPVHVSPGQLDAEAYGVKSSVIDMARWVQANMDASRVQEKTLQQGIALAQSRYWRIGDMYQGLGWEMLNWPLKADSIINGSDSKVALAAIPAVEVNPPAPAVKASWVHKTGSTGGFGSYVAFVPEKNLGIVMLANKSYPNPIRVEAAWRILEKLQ
Sequence of AmpC P. aeruginosa (P24735 27-397): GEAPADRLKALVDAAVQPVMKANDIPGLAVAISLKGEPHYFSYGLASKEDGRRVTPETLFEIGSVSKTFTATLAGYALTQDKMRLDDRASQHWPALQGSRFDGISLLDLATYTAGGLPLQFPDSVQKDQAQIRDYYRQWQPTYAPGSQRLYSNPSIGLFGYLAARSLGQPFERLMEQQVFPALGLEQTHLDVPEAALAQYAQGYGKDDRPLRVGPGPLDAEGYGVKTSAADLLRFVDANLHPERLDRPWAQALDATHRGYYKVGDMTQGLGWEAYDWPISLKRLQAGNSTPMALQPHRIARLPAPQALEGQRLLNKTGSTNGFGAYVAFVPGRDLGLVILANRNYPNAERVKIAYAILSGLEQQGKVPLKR
T2 sequence (Q51574 22-275): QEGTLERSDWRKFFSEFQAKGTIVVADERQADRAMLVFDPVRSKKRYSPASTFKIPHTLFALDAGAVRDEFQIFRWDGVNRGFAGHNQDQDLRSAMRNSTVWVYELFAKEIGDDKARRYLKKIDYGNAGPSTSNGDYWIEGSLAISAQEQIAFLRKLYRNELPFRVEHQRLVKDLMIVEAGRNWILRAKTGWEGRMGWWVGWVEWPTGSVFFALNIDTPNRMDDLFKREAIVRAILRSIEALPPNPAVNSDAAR
T4 sequence (P0AD64 22-286): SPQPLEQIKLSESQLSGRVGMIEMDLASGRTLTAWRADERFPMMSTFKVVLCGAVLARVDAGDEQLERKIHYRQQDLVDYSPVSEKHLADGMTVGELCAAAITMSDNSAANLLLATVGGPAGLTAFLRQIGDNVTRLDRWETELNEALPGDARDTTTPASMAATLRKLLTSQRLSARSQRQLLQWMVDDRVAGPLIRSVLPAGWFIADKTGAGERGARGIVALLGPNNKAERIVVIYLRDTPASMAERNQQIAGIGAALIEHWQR
T7 sequence (Q9F663 25-293 limits assumed): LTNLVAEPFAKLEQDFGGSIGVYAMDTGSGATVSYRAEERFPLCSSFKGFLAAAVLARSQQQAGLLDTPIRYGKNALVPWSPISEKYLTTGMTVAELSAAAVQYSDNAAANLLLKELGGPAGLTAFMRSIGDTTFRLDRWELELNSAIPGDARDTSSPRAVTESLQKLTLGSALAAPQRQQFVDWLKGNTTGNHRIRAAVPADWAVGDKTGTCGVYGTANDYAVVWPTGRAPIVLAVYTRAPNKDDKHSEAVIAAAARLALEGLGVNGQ
T6 sequence (Q6XEC0 23-265 limits assumed): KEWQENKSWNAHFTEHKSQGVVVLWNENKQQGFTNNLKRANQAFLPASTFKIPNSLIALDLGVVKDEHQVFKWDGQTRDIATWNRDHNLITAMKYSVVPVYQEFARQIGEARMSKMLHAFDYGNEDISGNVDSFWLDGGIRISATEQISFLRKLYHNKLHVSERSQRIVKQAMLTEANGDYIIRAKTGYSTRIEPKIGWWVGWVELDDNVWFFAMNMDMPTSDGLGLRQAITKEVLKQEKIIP
Sequence of AmpC (P99) (P05364 21-381): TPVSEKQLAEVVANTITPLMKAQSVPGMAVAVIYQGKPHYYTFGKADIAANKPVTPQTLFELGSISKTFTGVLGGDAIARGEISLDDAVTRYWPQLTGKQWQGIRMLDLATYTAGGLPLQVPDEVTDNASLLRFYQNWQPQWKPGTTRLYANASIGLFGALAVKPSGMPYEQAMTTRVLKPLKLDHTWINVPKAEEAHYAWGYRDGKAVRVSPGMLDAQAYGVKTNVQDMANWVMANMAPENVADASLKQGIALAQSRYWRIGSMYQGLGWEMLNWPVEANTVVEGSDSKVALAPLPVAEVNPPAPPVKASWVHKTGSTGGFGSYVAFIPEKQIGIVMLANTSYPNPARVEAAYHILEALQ
T3 sequence (Q9EXV5 entry or part of it): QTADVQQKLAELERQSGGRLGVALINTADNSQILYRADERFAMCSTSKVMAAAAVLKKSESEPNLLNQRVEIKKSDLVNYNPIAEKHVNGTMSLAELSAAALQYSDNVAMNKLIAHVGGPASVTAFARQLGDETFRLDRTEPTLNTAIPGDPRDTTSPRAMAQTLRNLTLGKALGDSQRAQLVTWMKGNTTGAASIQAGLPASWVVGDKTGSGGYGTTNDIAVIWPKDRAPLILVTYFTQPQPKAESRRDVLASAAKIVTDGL
T1 sequence (P62593 24-286 limits assumed): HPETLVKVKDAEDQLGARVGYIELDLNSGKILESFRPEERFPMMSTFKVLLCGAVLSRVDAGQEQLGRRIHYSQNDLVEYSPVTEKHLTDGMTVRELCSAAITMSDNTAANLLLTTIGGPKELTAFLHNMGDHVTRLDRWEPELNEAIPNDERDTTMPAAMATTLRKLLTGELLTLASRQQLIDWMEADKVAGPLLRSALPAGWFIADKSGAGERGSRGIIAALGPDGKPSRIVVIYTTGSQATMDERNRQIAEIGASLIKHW
T8 sequence (P13661 26-276): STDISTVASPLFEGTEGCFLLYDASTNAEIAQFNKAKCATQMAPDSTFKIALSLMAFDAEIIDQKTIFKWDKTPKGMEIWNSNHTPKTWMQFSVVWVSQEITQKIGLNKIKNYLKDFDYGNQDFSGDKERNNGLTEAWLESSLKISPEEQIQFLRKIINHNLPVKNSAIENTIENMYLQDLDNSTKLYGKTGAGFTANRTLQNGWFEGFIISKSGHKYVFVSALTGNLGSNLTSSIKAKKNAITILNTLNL
T5 sequence (Q06778 21-266): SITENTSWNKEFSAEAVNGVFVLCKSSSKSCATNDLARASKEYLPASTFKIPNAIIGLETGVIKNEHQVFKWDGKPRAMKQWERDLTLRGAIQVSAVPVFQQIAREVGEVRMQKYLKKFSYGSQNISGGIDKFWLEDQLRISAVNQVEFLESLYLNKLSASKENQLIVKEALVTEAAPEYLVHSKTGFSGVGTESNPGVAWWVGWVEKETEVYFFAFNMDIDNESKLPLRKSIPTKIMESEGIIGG

Compound: COC(=O)c1ncsc1C1=CCN2CC1N(OS(=O)(=O)[O-])C2=O.[Na+] (stereo not shown) [Example 22, Sodium [4-(4-(2-methoxy-2-oxo-methyl)-thiazol-5-yl)-7-oxo-1,6-diazabicyclo[3.2.1]oct-3-en-6-yl] sulfate]
- IC50 (AmpC P. aeruginosa): 5.5 µM
- IC50 [1]: 0.084 µM
- IC50 (AmpC (P99)): 0.16 µM
- IC50 (TEM-1): 0.005 µM
- IC50 (OXA-15): 0.012 µM
- IC50 (CTX-M-15): 0.0065 µM
- IC50 (SHV-1): 0.019 µM
- MIC compounds of the invention alone [2]: >32 µg/mL
- MIC compounds of the invention alone [3]: >32 µg/mL
- MIC compounds of the invention alone [4]: >32 µg/mL
- MIC compounds of the invention alone (E. cloacae P99 (AmpC) [5]): >32 µg/mL
- MIC compounds of the invention alone [6]: >32 µg/mL
- MIC compounds of the invention alone (E. coli RGN238 (OXA-1) [7]): >32 µg/mL
- MIC compounds of the invention alone [8]: >32 µg/mL
- MIC combination of CAZ and compounds of the invention at 4 μg/mL [9, 32]: 128 µg/mL
- MIC combination of CAZ and compounds of the invention at 4 μg/mL [10, 32]: >128 µg/mL
- MIC combination of CAZ and compounds of the invention at 4 μg/mL (E. cloacae P99 (AmpC) [11]; [32]): 128 µg/mL
- MIC combination of CAZ and compounds of the invention at 4 μg/mL [12, 32]: 128 µg/mL
- IC50 (OXA-11): 0.37 µM
- IC50 (OXA-48): 0.0039 µM
- MIC combination of CAZ and compounds of the invention at 4 μg/mL [13, 32]: 16 µg/mL
- IC50 (KPC-2): 0.34 µM
- IC50 (OXA-1): 0.068 µM

Compound: CC(C)(O/N=C(\C(=O)N[C@@H]1C(=O)N2C(C(=O)[O-])=C(C[n+]3ccccc3)CS[C@H]12)c1csc(N)n1)C(=O)O [ceftazidime]
- MIC ([9]; Klebsiella pneumoniae, BAA1898, CAZ alone, no compound): 256 µg/mL
- MIC ([10]; Pseudomonas aeruginosa, CAZ alone, no compound): 256 µg/mL
- MIC [14]: 128 µg/mL
- MIC [15]: 64 µg/mL
- MIC [16]: > 128 µg/mL
- MIC [17]: 128 µg/mL
- MIC [18]: 128 µg/mL
- MIC [19]: 128 µg/mL
- MIC [20]: 128 µg/mL
- MIC (E. cloacae P99 (AmpC) [11]; Enterobacter cloacae, CAZ alone, no compound): 128 µg/mL
- MIC ([12]; Klebsiella pneumoniae, CAZ alone, no compound): 256 µg/mL
- MIC [21]: > 128 µg/mL
- MIC [22]: > 128 µg/mL
- MIC (E. coli RGN238 (OXA-1) [23]): 0.5 µg/mL
- MIC [24]: > 1020 µg/mL
- MIC [25]: > 128 µg/mL
- MIC [26]: > 128 µg/mL
- MIC [27]: 64 µg/mL
- MIC [28]: 0.5 µg/mL
- MIC [29]: > 128 µg/mL
- MIC [30]: 128 µg/mL
- MIC [31]: > 128 µg/mL
- MIC ([13]; Escherichia coli, CAZ alone, no compound): 128 µg/mL
